Source: PubChem BioAssay (NCI)
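Each compound was tested at five concentrations against cells in 96-well plates for 48 hours. TGI marks complete inhibition of growth.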

What was measured:
Assay in all cases: NCI anticancer screen, dose series, 48 h
[1] = tested on: PC-3 prostate
[2] = tested on: OVCAR-8 ovarian
[3] = tested on: MCF7 breast
[4] = tested on: HL-60(TB) leukemia
[5] = tested on: SF-295 CNS
[6] = tested on: COLO 205 colon
[7] = tested on: HS 578T breast
[8] = tested on: SK-MEL-2 melanoma
[9] = tested on: HOP-92 NSCLC
[10] = tested on: MDA-N
[11] = tested on: HCT-15 colon
[12] = tested on: SF-539 CNS
[13] = tested on: 786-0 renal
[14] = tested on: OVCAR-4 ovarian
[15] = tested on: SW-620 colon
[16] = tested on: NCI-H226 lung
[17] = tested on: ACHN renal
[18] = tested on: CCRF-CEM leukemia
[19] = tested on: EKVX NSCLC
[20] = tested on: MDA-MB-231 breast
[21] = tested on: SF-268 CNS
[22] = tested on: NCI-H522 lung
[23] = tested on: KM12 colon
[24] = tested on: HCC-2998 colon
[25] = tested on: SN12C renal
[26] = tested on: SK-OV-3 ovarian
[27] = tested on: MOLT-4 leukemia
[28] = tested on: TK-10 renal
[29] = tested on: U251 CNS
[30] = tested on: HCT-116 colon
[31] = tested on: OVCAR-5 ovarian
[32] = tested on: NCI-H23 lung
[33] = tested on: T-47D breast
[34] = tested on: SK-MEL-5 melanoma
[35] = tested on: NCI-H460 lung
[36] = tested on: HT29 colon
[37] = tested on: K-562 leukemia
[38] = tested on: RXF 393 renal
[39] = tested on: M14 melanoma
[40] = tested on: SK-MEL-28 melanoma
[41] = tested on: BT-549 breast
[42] = tested on: SNB-19 CNS
[43] = tested on: UACC-257 melanoma
[44] = tested on: LOX IMVI melanoma
[45] = tested on: RPMI-8226 leukemia
[46] = tested on: DU-145 prostate
[47] = tested on: A498 renal
[48] = tested on: OVCAR-3 ovarian
[49] = tested on: CAKI-1 renal
[50] = tested on: NCI/ADR-RES ovarian
[51] = tested on: MALME-3M melanoma
[52] = tested on: UO-31 renal
[53] = tested on: HOP-62 NSCLC
[54] = tested on: SNB-75 CNS
[55] = tested on: IGROV1 ovarian
[56] = tested on: MDA-MB-435
[57] = tested on: UACC-62 melanoma
[58] = tested on: A549 NSCLC
[59] = tested on: SR leukemia

Measured: TGI

CC(NNC(=O)c1ccncc1)c1ccc(Cl)cc1Cl (centres undefined)
> 100 µM: all assays above
